This assay is described as follows: Phosphodiesterase assay using fluorescence polarization with various metallic ion salts. Type of assay: binding. The following applies: FIG. 1B, 50 nM TAMRA-cGMP with PDE, 10 mM metal salt in 100 mM NaAc/HAc buffer pH 5.2 with 10 mM ZnSO4. As to the method:
After one hour of incubation, the fluorescence polarization was measured using Analyst reader (Molecular Devices).
In general terms: Polarisation of emitted light reports the rotation of a fluorescent probe.

The values that follow come from patent US7901901B2, “Assays for measuring phosphate modification enzyme activity” (Roche Palo Alto LLC, priority 2006, dated 2011).

`[Cl][Ga]([Cl])[Cl]` [GaCl3]: the “fluorescence signal, indicative of binding to the PDE product” value is on record as “able to show fluorescence signal”.

For the compound `[Cl-].[Cl-].[Cl-].[In+3]` [InCl3, indium chloride], the “fluorescence signal, indicative of binding to the PDE product” value is “able to show fluorescence signal”.
